Laboratory results from ChEMBL document CHEMBL1128865, “A systematic study of P1P3 spanning sidechains for the inhibition of HIV-1 protease” (Bioorg Med Chem Lett, 1995).

How the values were obtained:
CCRF-CEM [1] = assay: Concentration required for inhibitory activity against CEM cells in a whole cell assay; assay type: functional; conditions: Homo sapiens, read-out: ED50 (the source's name)
[2] = biological target: Human immunodeficiency virus type 1 protease (Human immunodeficiency virus 1, UniProt Q72874); assay: Inhibitory activity against HIV-1 protease
CCRF-CEM [3] = assay: Concentration required for inhibitory activity against CEM cells in a whole cell assay.; assay type: functional; conditions: Homo sapiens, read-out: ED50 (the source's name)

EC50 (CCRF-CEM [3]) [nM]	SMILES	EC50 (CCRF-CEM [1]) [nM]	IC50 [2] [nM]
	CC(C)(C)NC(=O)[C@@H]1C[C@@H]2CCCC[C@@H]2CN1C[C@@H](O)[C@H](Cc1ccccc1)NC(=O)[C@H](CC(N)=O)NC(=O)c1ccc2ccccc2n1	1.5	
	CC(C)(C)NC(=O)c1ccccc1C[C@@H](O)[C@H](CSc1ccccc1)NC(=O)[C@H](CC(N)=O)NC(=O)OCc1ccccc1		14
	CC(C)(C)NC(=O)c1ccccc1C[C@@H](O)[C@H](CSc1ccccc1)NC(=O)[C@H](CC(N)=O)NC(=O)c1ccc2ccccc2n1		1.1
	CC(C)(C)NC(=O)c1ccccc1C[C@@H](O)[C@H](CSc1ccccc1)NC(=O)CCC(N)=O		> 150
	CC(C)(C)NC(=O)c1ccccc1C[C@@H](O)[C@H](CSc1ccc2ccccc2c1)NC(=O)[C@H](CC(N)=O)NC(=O)c1ccc2ccccc2n1		< 0.25
	CC(C)(C)NC(=O)c1ccccc1C[C@@H](O)[C@H](CSc1ccc2ccccc2c1)NC(=O)[C@H](CC(N)=O)NC(=O)OCc1ccccc1		1.5
23	CC(C)(C)NC(=O)c1ccccc1C[C@@H](O)[C@H](Cc1ccccc1)NC(=O)[C@H](CC(N)=O)NC(=O)c1ccc2ccccc2n1		
	CC(C)(C)NC(=O)[C@@H]1C[C@@H]2CCCC[C@@H]2CN1C[C@@H](O)[C@H](CSc1ccc2ccccc2c1)NC(=O)[C@H](CC(N)=O)NC(=O)c1ccc2ccccc2n1	1.4	< 0.25
	CC(=O)N[C@@H](CC(N)=O)C(=O)N[C@@H](CSc1ccc2ccccc2c1)[C@H](O)Cc1ccccc1C(=O)NC(C)(C)C		1.1
	CC(=O)N[C@@H](CC(N)=O)C(=O)N[C@@H](CSc1ccccc1)[C@H](O)Cc1ccccc1C(=O)NC(C)(C)C		19
	CC(C)(C)NC(=O)[C@@H]1C[C@@H]2CCCC[C@@H]2CN1C[C@@H](O)[C@H](CSc1ccccc1)NC(=O)[C@H](CC(N)=O)NC(=O)c1ccc2ccccc2n1	1.3	1.5
	CC(C)(C)NC(=O)c1ccccc1C[C@@H](O)[C@H](CSc1ccc2ccccc2c1)NC(=O)CCC(N)=O		> 80
